Reference: PubChem BioAssay (NCI)
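All cell lines were grown in 96-well plates and treated with compound for 48 hours. GI50 = concentration required for 50% inhibition of growth. The concentration for full growth arrest is given as TGI.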

How the values were obtained:
Assay in all cases: NCI anticancer screen, dose series, 48 h
[1] = test system: 786-0 renal
[2] = test system: A498 renal
[3] = test system: A549 NSCLC
[4] = test system: ACHN renal
[5] = test system: BT-549 breast
[6] = test system: CAKI-1 renal
[7] = test system: CCRF-CEM leukemia
[8] = test system: COLO 205 colon
[9] = test system: DU-145 prostate
[10] = test system: EKVX NSCLC
[11] = test system: HCC-2998 colon
[12] = test system: HCT-116 colon
[13] = test system: HCT-15 colon
[14] = test system: HL-60(TB) leukemia
[15] = test system: HOP-62 NSCLC
[16] = test system: HOP-92 NSCLC
[17] = test system: HS 578T breast
[18] = test system: HT29 colon
[19] = test system: IGROV1 ovarian
[20] = test system: K-562 leukemia
[21] = test system: KM12 colon
[22] = test system: LOX IMVI melanoma
[23] = test system: M14 melanoma
[24] = test system: MCF7 breast
[25] = test system: MDA-MB-231 breast
[26] = test system: MDA-MB-435
[27] = test system: MOLT-4 leukemia
[28] = test system: NCI-H226 lung
[29] = test system: NCI-H23 lung
[30] = test system: NCI-H460 lung
[31] = test system: NCI-H522 lung
[32] = test system: NCI/ADR-RES ovarian
[33] = test system: OVCAR-3 ovarian
[34] = test system: OVCAR-4 ovarian
[35] = test system: OVCAR-5 ovarian
[36] = test system: OVCAR-8 ovarian
[37] = test system: PC-3 prostate
[38] = test system: RPMI-8226 leukemia
[39] = test system: RXF 393 renal
[40] = test system: SF-268 CNS
[41] = test system: SF-295 CNS
[42] = test system: SF-539 CNS
[43] = test system: SK-MEL-2 melanoma
[44] = test system: SK-MEL-28 melanoma
[45] = test system: SK-MEL-5 melanoma
[46] = test system: SK-OV-3 ovarian
[47] = test system: SN12C renal
[48] = test system: SNB-19 CNS
[49] = test system: SNB-75 CNS
[50] = test system: SR leukemia
[51] = test system: SW-620 colon
[52] = test system: T-47D breast
[53] = test system: TK-10 renal
[54] = test system: U251 CNS
[55] = test system: UACC-257 melanoma
[56] = test system: UACC-62 melanoma
[57] = test system: UO-31 renal
[58] = test system: MALME-3M melanoma

CC(C)(C)OC(=O)N(CCCCN(CCCNC(=O)C(F)(F)F)C(=O)OC(C)(C)C)CCCNC(=O)C(F)(F)F
TGI [1]: > 100 µM | TGI [2]: > 100 µM | TGI [3]: > 100 µM | TGI [4]: > 100000 nM | TGI [5]: > 100 µM | TGI [6]: > 100 µM | TGI [7]: > 100 µM | TGI [8]: > 100 µM | TGI [9]: > 100 µM | TGI [10]: > 100 µM | TGI [11]: > 100 µM | TGI [12]: > 100 µM | TGI [13]: > 100 µM | TGI [14]: > 100 µM | TGI [15]: > 100 µM | TGI [16]: > 100 µM | TGI [17]: > 100 µM | TGI [18]: > 100 µM | TGI [19]: > 100 µM | TGI [20]: > 100 µM | TGI [21]: > 100 µM | TGI [22]: > 100 µM | TGI [23]: > 100 µM | TGI [24]: > 100 µM | TGI [25]: > 100 µM | TGI [26]: > 100 µM | TGI [27]: > 100 µM | TGI [28]: > 100 µM | TGI [29]: > 100 µM | TGI [30]: > 100 µM | TGI [31]: > 100 µM | TGI [32]: > 100 µM | TGI [33]: > 100 µM | TGI [34]: > 100 µM | TGI [35]: > 100 µM | TGI [36]: > 100 µM | TGI [37]: > 100 µM | TGI [38]: > 100 µM | TGI [39]: > 100 µM | TGI [40]: > 100 µM | TGI [41]: > 100 µM | TGI [42]: > 100 µM | TGI [43]: > 100 µM | TGI [44]: > 100 µM | TGI [45]: > 100 µM | TGI [46]: > 100 µM | TGI [47]: > 100 µM | TGI [48]: > 100 µM | TGI [49]: > 100 µM | TGI [50]: > 100 µM | TGI [51]: > 100 µM | TGI [52]: > 100 µM | TGI [53]: > 100 µM | TGI [54]: > 100 µM | TGI [55]: > 100 µM | TGI [56]: > 100 µM | TGI [57]: > 100000 nM

Cc1ccc(SC2c3ccc(C)cc3Oc3nc(N)c(C#N)c(N)c32)cc1 (stereo not given)
GI50 [1]: 1720 nM | TGI [1]: 3.16 µM | GI50 [2]: 2720 nM | TGI [2]: 7.33 µM | GI50 [3]: 4.9 µM | TGI [3]: 17.3 µM | GI50 [4]: 1630 nM | TGI [4]: 2990 nM | GI50 [5]: 1630 nM | TGI [5]: 3.25 µM | GI50 [7]: 2180 nM | TGI [7]: 6.77 µM | GI50 [8]: 1710 nM | TGI [8]: 3.32 µM | GI50 [9]: 1860 nM | TGI [9]: 3.36 µM | GI50 [10]: 1590 nM | TGI [10]: 3.09 µM | GI50 [11]: 1800 nM | TGI [11]: 3.46 µM | GI50 [12]: 1880 nM | TGI [12]: 3.58 µM | GI50 [13]: 1720 nM | TGI [13]: 3.23 µM | GI50 [14]: 2090 nM | TGI [14]: 5.49 µM | GI50 [15]: 1790 nM | TGI [15]: 3.4 µM | GI50 [16]: 1450 nM | TGI [16]: 3.23 µM | GI50 [17]: 2400 nM | TGI [17]: 7.64 µM | GI50 [18]: 2000 nM | TGI [18]: 3.9 µM | GI50 [20]: 2790 nM | TGI [20]: 12.4 µM | GI50 [21]: 2360 nM | TGI [21]: 6.6 µM | GI50 [22]: 1590 nM | TGI [22]: 3.14 µM | GI50 [23]: 1770 nM | TGI [23]: 3.49 µM | GI50 [58]: 1770 nM | TGI [58]: 3.6 µM | GI50 [24]: 1940 nM | TGI [24]: 4.74 µM | GI50 [25]: 1670 nM | TGI [25]: 3.29 µM | GI50 [26]: 1810 nM | TGI [26]: 3.4 µM | GI50 [27]: 2270 nM | TGI [27]: 6.09 µM | GI50 [28]: 1770 nM | TGI [28]: 4 µM | GI50 [30]: 1940 nM | TGI [30]: 4.07 µM | GI50 [31]: 1670 nM | TGI [31]: 3.11 µM | GI50 [32]: 2790 nM | TGI [32]: 9.73 µM | GI50 [33]: 1770 nM | TGI [33]: 3.22 µM | GI50 [34]: 1800 nM | TGI [34]: 3.29 µM | GI50 [35]: 1760 nM | TGI [35]: 3.45 µM | GI50 [36]: 1670 nM | TGI [36]: 3.06 µM | GI50 [37]: 1850 nM | TGI [37]: 3.74 µM | GI50 [38]: 2150 nM | TGI [38]: 5.12 µM | GI50 [39]: 1810 nM | TGI [39]: 3.28 µM | GI50 [40]: 1830 nM | TGI [40]: 4.06 µM | GI50 [41]: 6.77 µM | TGI [41]: 19.5 µM | GI50 [42]: 1800 nM | TGI [42]: 3.82 µM | GI50 [43]: 1840 nM | TGI [43]: 3.71 µM | GI50 [44]: 1830 nM | TGI [44]: 3.35 µM | GI50 [45]: 1640 nM | TGI [45]: 3.1 µM | GI50 [46]: 10.1 µM | TGI [46]: 21.7 µM | GI50 [48]: 1860 nM | TGI [48]: 3.71 µM | GI50 [49]: 1500 nM | TGI [49]: 4.53 µM | GI50 [50]: 2160 nM | TGI [50]: 5.54 µM | GI50 [51]: 1840 nM | TGI [51]: 3.84 µM | GI50 [52]: 1800 nM | TGI [52]: 5.01 µM | GI50 [53]: 1950 nM | TGI [53]: 3.39 µM | GI50 [54]: 1690 nM | TGI [54]: 3.08 µM | GI50 [55]: 1800 nM | TGI [55]: 3.22 µM | GI50 [56]: 1610 nM | TGI [56]: 3.13 µM | GI50 [57]: 1180 nM | TGI [57]: 2490 nM
